Consider nine molecules from US9017963B2, “Method for detecting microorganisms” (Woundchek Laboratories (US), Inc., priority 2002, dated 2015).

*: point of attachment. Dabsyl = label, CN(C)c1ccc(/N=N/c2ccc(S(=O)(=O)*)cc2)cc1; EDANS = O=S(=O)(O)c1cccc2c(NCCN*)cccc12

The test system of experiment [1] is autolysins (Enterococcus faecalis). The experiment in a line: Autolysin assay, E. faecalis supernatant. The experiment is classed as biochemical. The conditions noted are these: 20° C., 7 hours. The procedure:
(§1) A culture of each of the following bacterial species was grown to saturation in Brain Heart Infusion (BHI) broth at 37° C. with vigorous shaking (˜200 rpm), using methods that are standard in the art: Staphylococcus aureus; Staphylococcus epidermidis; Serratia marcescens; Streptococcus salivarius; Escherichia coli; Pseudomonas aeruginosa; and Enterococcus faecalis. After overnight growth (to saturation), a 1 mL sample of each culture was obtained, and the cells were removed from the culture supernatant by centrifugation at 12,000×g for 5 minutes. The remaining culture supernatants were stored on ice until required (less than one hour). The bacteria were assayed for the presence or absence of specific enzymes as described below. […]
(§2) To test for the presence of autolysins in bacterial cell culture supernatants, the synthetic autolysin substrate p-nitrophenyl-N-acetyl-b-D-glucosaminide (PNP-AGA), a substrate containing a dye that is detected at […] when the substrate is modified, was dissolved in 50% DMSO to a final concentration of 20 mM to form a substrate solution. Modification of this substrate can be detected by measuring the change in absorbance at 405 nm. […] The progress of modification of the labeled substrate was monitored by absorbance at 405 nm.

Experiment [2] has as its system other bacterial culture supernatants of Example 2. The experiment can be described thus: Autolysin assay, other culture supernatants. The experiment is classed as biochemical. The conditions noted are these: other culture supernatants vs water control; 20° C., 7 hours. The procedure: as §1, §2
A further experiment deals with S. pyogenes. The experiment in a line: Indolyl ester glass microfiber filter sensor, S. pyogenes. The experiment is classed as biochemical, Streptococcus pyogenes. The note with it: substrates bound to glass microfiber filter; FIG. 17B.
A further experiment concerns S. epidermidis. The experiment can be described thus: Indolyl ester glass microfiber filter sensor, S. epidermidis. The note with it: substrates bound to glass microfiber filter; FIG. 17B. The experiment is classed as biochemical, Staphylococcus epidermidis. An excerpt:
Hydrophobic interactions make use of the non-ionic packing that occurs in a polar solvent such as water and such interactions can be used in the production of biosensors for detection of pathogens. The substrates 5-bromo-4-chloro-3indolyl butyrate and 5-bromo-4-chloro-3indolyl caprylate can be spotted onto a glass microfiber filter to make a sensor. Upon spotting the filter with a small amount of Staphylococcus (aureus or epidermidis) culture medium the color of the filter will turn blue in approximately 15 minutes.

The test system of another experiment is lipase from S. aureus. The experiment can be described thus: Lipase assay, S. aureus culture supernatant. The class given is biochemical, Staphylococcus aureus. The note with it: 20 mM Tris (pH 8.3) with 1 mM ZnSO4, 20% methanol, 20% DMSO, or 10 mM Triton X-100 vs control. The method, then:
(§3) A culture of each of the following bacterial species was grown to saturation in Brain Heart Infusion (BHI) broth at 37° C. with vigorous shaking (˜200 rpm), using methods that are standard in the art: Staphylococcus aureus; Staphylococcus epidermidis; Serratia marcescens; Streptococcus salivarius; Escherichia coli; Pseudomonas aeruginosa; and Enterococcus faecalis. After overnight growth (to saturation), a 1 mL sample of each culture was obtained, and the cells were removed from the culture supernatant by centrifugation at 12,000×g for 5 minutes. The remaining culture supernatants were stored on ice until required (less than one hour). The bacteria were assayed for the presence or absence of specific enzymes as described below. Alternatively, the bacterial cells are not separated from the culture supernatant, but rather, the assay is carried out on a sample containing the cells still in suspension in their culture broth.
To test for the presence or absence of lipases secreted by bacteria, the lipase substrate p-nitrophenyl caprate, obtained from Sigma (Catalog No.: N-0252). This lipase substrate consists of capric acid, a ten-carbon lipid molecule, esterified with the dye para nitrophenol (detectable label) as described above. The substrate was dissolved in isopropyl alcohol at a concentration of 8 mM (2.35 mg/mL). A reaction buffer containing 20 mM Tris (pH 8.5) was also prepared.
To perform the lipase assay, 80 μL of reaction buffer, 10 μL of culture supernatant from each bacteria species described in Example 2, and 10 μL of assay substrate were added to a well of a 96-well microplate. Each bacterial species was assayed individually, and the assays were performed in triplicate. The 96-well plate was incubated at 37° C. for 60 minutes. At 5 minute intervals during the incubation period, absorbance at 415 nm, indicating modification of the enzyme by a lipase secreted by the cells, was automatically measured using a BioRad Benchmark Microplate reader.
However, it is known that bacterial lipases do show strong substrate specificity with regard to the chain length of the fatty acid they hydrolyze (Van Kampen et al., BBA, 1544: 229, 2001) and to the location in a lipid layer. The degree that the environment of the substrate affects the efficiency of hydrolysis depends on the particular enzyme. To test this for the lipase from S. aureus, the above-described lipase assay was performed in the presence of several detergent and solvent additives. The reaction buffer consisted of 20 mM Tris (pH 8.3) with 1 mM ZnSO4 added, plus either nothing additional (control), 20% methanol, 20% DMSO, or 10 mM Triton X-100.

The test system of experiment [3] is Serratia marcescens specific protease. The experiment can be described thus: Serratia protease FRET assay, S. marcescens culture. The experiment is classed as biochemical. The source says:
A Serratia marcescens specific protease was identified based on a homology search using the sequence of a known sspB protease found in the Staphylococcus species. This protease has homology to the cysteine protease precursor (sspB) protein of Staphylococcus aureus. The corresponding Serratia protease has not been previously characterized. To test for the presence of the specific protease in a bacterial culture, a short target peptide was designed. This target peptide was derived from a polypeptide substrate previously shown to be cleaved by S. aureus sspB (Chan and Foster, J. Bacteriology 180:6232-6241, 1998). This peptide was capped by a fluorescent dye molecule on one end and by an associated chromophore molecule on the other end. If the absorption band of the chromophore has sufficient overlap with the absorbance band associated with the fluorescence of the dye molecule, the observed fluorescence will be quenched. This phenomenon is known as fluorescence resonance energy transfer (FRET) and can be used to determine the distance between the FRET donor and acceptor molecules. Upon cleavage of the peptide the fluorescent indicator is released from the proximity of the quencher and the fluorescence increase is measured. Thus, the presence or absence of a protease that targets the peptide in the sample can be determined by detecting fluorescence emitted by the cleaved peptide. […]

For experiment [4] the test system is unchanged. The experiment in a line: Biosensor: target peptide bound to Cell Debris Remover, exposed to Serratia marcescens extract. The class given is biochemical. The source says:
An example of a biosensor for the detection of a Serratia marcescens (S. marcescens) specific protease, and therefore, for the detection of Serratia marcescens now follows. The Serratia marcescens specific target peptide substrate was bound to a surface with a weak positive charge, such as fibrous cellulose lightly substituted with DEAE (Cell Debris Remover, Whatman, Inc.).

Experiment [5] concerns Staphylococcus aureus, Listeria monocytogenes, Pseudomonas aeruginosa, Enterococcus faecalis, Streptococcus salivarius, Escherichia coli cultures. The experiment can be described thus: Serratia protease FRET assay, other bacterial pathogen samples. The conditions noted are these: other bacterial samples vs water control; same conditions. The experiment is classed as biochemical. The procedure: The specificity of the protease for Serratia marcescens is was determined by detecting cleavage of a target polypeptide, using FRET, by the protease in a number of different bacterial pathogen samples. The bacterial pathogen samples used in this study were all taken from overnight cultures grown in brain heart […] (BHI) media at 37° C., as described herein. The bacterial pathogens chosen for this study were: Staphylococcus aureus, Listeria monocytogenes, Pseudomonas aeruginosa, Enterococcus faecalis, Streptococcus salivarius, Serratia marcescens, and Escherichia coli. The target peptide substrate used to test for the Serratia marcescens specific protease was as follows: Dabsyl-NEAIQEDQVQYE-Edans (SEQ ID NO: 2), and was prepared using standard methods known to one skilled in the art. A substrate solution containing 1 mg/mL to 5 mg/mL of target peptide substrate in 1:1 water/dimethylsulfoxide (DMSO) was prepared. The reaction buffer used was 20 mM Tris (pH 7.5) with 200 mM NaCl. […] The narrow band filters in the fluorimeter were centered at 305 nm for excitation and 485 nm for fluorescence emission readings. The samples were incubated at 37° C. and the fluorescence of each sample was measured at time points taken every 10 minutes. […]

The subject of experiment [6] is beta-galactosidase (other bacterial supernatants of Example 2). The experiment can be described thus: Beta-galactosidase assay, other species. The class given is biochemical. The note with it: 37° C. The procedure: as §3
(§4) To determine the presence or absence of bacteria in a sample, mid-log phase bacterial supernatants were obtained as described in Example 2. A substrate solution containing the labeled synthetic substrate ortho-nitrophenyl-b-D-galactopyranoside (ONPG) dissolved in 50% DMSO to a concentration of 20 mM was prepared. […] The samples were incubated at 37° C. and absorbance at 420 nm was measured hourly.

Experiment [7] relates to beta-galactosidase (Streptococcus salivarius). The experiment in a line: Beta-galactosidase assay, S. salivarius supernatant. The experiment is classed as biochemical. The note with it: 37° C. The procedure:
as §3, §4

As for `CC(=O)N[C@H]1[C@H](Oc2ccc([N+](=O)[O-])cc2)O[C@H](CO)[C@@H](O)[C@@H]1O` [PNP-AGA, p-nitrophenyl-N-acetyl-b-D-glucosaminide], the “modification of substrate (change in absorbance at 405 nm)” value is on record as “reacted with the substrate, giving rise to a color change” in experiment [1] and “None of the other culture supernatants were distinguishable from the water control” in experiment [2]. For the molecule `CCCC(=O)Oc1c[nH]c2ccc(Br)c(Cl)c12` [5-bromo-4-chloro-3indolyl butyrate], the “detection on filter sensor” value in the experiment with S. pyogenes is on record as “did not detect S. pyogenes”. Moreover, the “detection on filter sensor (dark spot)” value in the experiment on S. epidermidis was “dark spot corresponding to S. epidermidis indicates detection”. Regarding `CCCCCCCC(=O)Oc1c[nH]c2ccc(Br)c(Cl)c12` [5-bromo-4-chloro-3indolyl caprylate], in the experiment with S. pyogenes, the “detection on filter sensor” value is on record as “did not detect S. pyogenes”. For the same molecule, the “detection on filter sensor (dark spot)” value in the experiment on S. epidermidis is reported as “dark spot corresponding to S. epidermidis indicates detection”. On to `CO` [methanol], for which the “effect of additive on hydrolysis rate of p-nitrophenyl caprate” value (“effect … of p-nitrophenyl caprate” for short) with lipase from S. aureus is “hydrolysis rate was found to increase”. With “Dabsyl-NEAIQEDQVQYE-Edans (Dabsyl-NEAIQEDQVQYE-{EDANS}; SMILES CC[C@H](C)[C@H](NC(=O)[C@H](C)NC(=O)[C@H](CCC(=O)O)NC(=O)[C@H](CC(N)=O)NS(=O)(=O)c1ccc(/N=N/c2ccc(N(C)C)cc2)cc1)C(=O)N[C@@H](CCC(N)=O)C(=O)N[C@@H](CCC(=O)O)C(=O)N[C@@H](CC(=O)O)C(=O)N[C@@H](CCC(N)=O)C(=O)N[C@H](C(=O)N[C@@H](CCC(N)=O)C(=O)N[C@@H](Cc1ccc(O)cc1)C(=O)N[C@@H](CCC(=O)O)C(=O)NCCNc1cccc2c(S(=O)(=O)O)cccc12)C(C)C) [target peptide substrate used to test for the Serratia marcescens specific protease]”, the “cleavage of target peptide substrate (relative fluorescence intensity over time)” value is “reacted with the substrate, giving rise to an increase in fluorescence intensity” in experiment [3] (S. marcescens overnight culture in BHI, 20 mM Tris (pH 7.5) with 200 mM NaCl, 37° C., emission 485 nm) and “None of the other bacterial samples, including the Staphylococcus aureus sample, were distinguishable from the control” in [5]. Besides, the fluorescence of biosensor result in experiment [4] is on record as “fluorescence was readily detected”. In the case of `O=C(O)CN(CCN(CC(=O)O)CC(=O)O)CC(=O)O` [EDTA, ethylenediaminetetraacetic acid], in [3] (One mM EDTA added to 20 mM Tris (pH 7.5) with 200 mM NaCl, Serratia culture), the “effect of EDTA on protease activity (relative fluorescence of the target peptide)” value is reported as “No reduction in activity”.

`O=[N+]([O-])c1ccccc1O[C@@H]1O[C@H](CO)[C@H](O)[C@H](O)[C@H]1O` [ONPG, ortho-nitrophenyl-b-D-galactopyranoside]: the “reaction with substrate (absorbance at 420 nm)” value is reported as “other species did not” in [6] and “reacted with the substrate” in experiment [7]. In the case of `C[S+](C)[O-]` [DMSO], the “effect … of p-nitrophenyl caprate” value with lipase from S. aureus is reported as “hydrolysis rate was found to increase”.

Turning to Triton X-100, the “effect … of p-nitrophenyl caprate” value in the experiment with lipase from S. aureus was “hydrolysis rate was found to increase”.
